# Reference: US8614327B2 (Vertex Pharmaceuticals Incorporated, priority 2004, dated 2013)
# Biological target: T1, ΔF508-CFTR (Homo sapiens, UniProt P13569, DEL508-508)
# T1 construct: expressed in transfected cells
# Experiment: Membrane potential optical (FRET/VIPR) assay, identification of potentiator compounds
# Assay type: cell-based
# Settings: Table 3, assay not given; for % Activity: relative efficacy
# Text: I) Membrane Potential Optical Methods for Assaying ΔF508-CFTR Modulation Properties of Compounds The optical membrane potential assay utilized voltage-sensitive FRET sensors described by Gonzalez and Tsien (See, Gonzalez, J. E. and R. Y. Tsien (1995) “Voltage sensing by fluorescence resonance energy transfer in single cells” Biophys J 69(4): 1272-80, and Gonzalez, J. E. and R. Y. Tsien (1997) “Improved indicators of cell membrane potential that use fluorescence resonance energy transfer” Chem Biol 4(4): 269-77) in combination with instrumentation for measuring fluorescence changes such as the Voltage/Ion Probe Reader (VIPR) (See, […]. Oades, et al. (1999) “Cell-based assays and instrumentation for screening ion-channel targets” Drug Discov Today 4(9): 431-439). These voltage sensitive assays are based on the change in fluorescence resonant energy transfer (FRET) between the membrane-soluble, voltage-sensitive dye, DiSBAC2(3), and a fluorescent phospholipid, CC2-DMPE, which is attached to the outer leaflet of the plasma membrane and acts as a FRET donor. Changes in membrane potential (Vm) cause the negatively charged DiSBAC2(3) to redistribute across the plasma membrane and the amount of energy transfer from CC2-DMPE changes accordingly. The changes in fluorescence emission were monitored using VIPR which is an integrated liquid handler and fluorescent detector designed to conduct cell-based screens in 96- or 384-well microtiter plates. To identify potentiators of ΔF508-CFTR, a double-addition HTS assay format was developed. During the first addition, a Cl^--free medium with or without test compound was added to each well. […] (in mM) NaCl 160, KCl 4.5, CaCl2 2, MgCl2 1, HEPES 10, pH 7.4 with NaOH. • Chloride-free bath solution: Chloride salts in Bath Solution #1 are substituted with gluconate salts. • CC2-DMPE: Prepared as a 10 mM stock solution in DMSO and stored at -20° C. • DiSBAC2(3): Prepared as a 10 mM stock in DMSO and stored at -20° C. NIH3T3 mouse fibroblasts stably expressing ΔF508-CFTR are used for optical measurements of membrane potential. […] For all optical assays, the cells were seeded at 30,000/well in 384-well matrigel-coated plates and cultured for 2 hrs at 37° C. before culturing at 27° C. for 24 hrs. for the potentiator assay.
# T1 sequence (P13569 with tags, fused parts or gaps DEL508-508): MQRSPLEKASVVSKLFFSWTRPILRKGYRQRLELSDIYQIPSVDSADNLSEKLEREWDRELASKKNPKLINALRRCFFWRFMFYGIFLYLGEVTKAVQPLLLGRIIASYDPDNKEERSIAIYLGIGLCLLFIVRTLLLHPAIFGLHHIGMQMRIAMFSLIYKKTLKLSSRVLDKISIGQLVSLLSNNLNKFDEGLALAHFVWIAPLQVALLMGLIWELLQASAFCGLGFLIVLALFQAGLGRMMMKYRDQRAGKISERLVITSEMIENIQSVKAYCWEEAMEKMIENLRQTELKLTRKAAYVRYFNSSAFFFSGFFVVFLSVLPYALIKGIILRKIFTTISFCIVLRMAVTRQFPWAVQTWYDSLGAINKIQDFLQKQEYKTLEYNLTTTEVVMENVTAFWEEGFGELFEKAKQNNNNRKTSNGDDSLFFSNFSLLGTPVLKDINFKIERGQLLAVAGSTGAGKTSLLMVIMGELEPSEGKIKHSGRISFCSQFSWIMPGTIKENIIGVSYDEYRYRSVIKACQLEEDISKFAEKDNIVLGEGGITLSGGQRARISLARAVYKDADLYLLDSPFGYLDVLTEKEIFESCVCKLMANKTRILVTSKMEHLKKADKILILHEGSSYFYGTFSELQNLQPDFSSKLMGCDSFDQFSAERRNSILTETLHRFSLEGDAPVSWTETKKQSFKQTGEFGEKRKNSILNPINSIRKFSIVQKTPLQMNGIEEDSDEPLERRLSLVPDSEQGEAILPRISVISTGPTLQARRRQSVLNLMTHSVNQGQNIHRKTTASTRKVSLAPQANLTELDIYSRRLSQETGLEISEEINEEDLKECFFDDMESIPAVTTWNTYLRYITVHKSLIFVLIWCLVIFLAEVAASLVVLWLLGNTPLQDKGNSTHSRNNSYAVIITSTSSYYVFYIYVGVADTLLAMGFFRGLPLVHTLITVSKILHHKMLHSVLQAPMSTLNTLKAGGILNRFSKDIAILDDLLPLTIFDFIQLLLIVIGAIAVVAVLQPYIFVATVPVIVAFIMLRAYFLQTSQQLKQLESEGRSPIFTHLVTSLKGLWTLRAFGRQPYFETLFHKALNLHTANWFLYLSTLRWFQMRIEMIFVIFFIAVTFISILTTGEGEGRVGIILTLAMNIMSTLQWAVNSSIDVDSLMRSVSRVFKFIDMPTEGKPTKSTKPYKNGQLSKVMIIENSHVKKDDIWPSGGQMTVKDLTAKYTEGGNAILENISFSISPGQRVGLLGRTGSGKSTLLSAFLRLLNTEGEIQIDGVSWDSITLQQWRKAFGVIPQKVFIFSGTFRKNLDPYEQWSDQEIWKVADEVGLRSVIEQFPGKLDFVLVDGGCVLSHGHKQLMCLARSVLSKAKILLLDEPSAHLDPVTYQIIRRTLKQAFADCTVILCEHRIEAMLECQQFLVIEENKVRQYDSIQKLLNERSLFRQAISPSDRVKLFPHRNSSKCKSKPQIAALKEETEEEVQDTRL
EC50 [µM],% Activity,Structure (SMILES)
< 10,++ (between 25% to 100%),"CCC(CC)(CC)c1cc(F)c(NC(=O)c2cnc3ccccc3c2O)cc1O [Compound 34, N-[4-(1,1-diethylpropyl)-2-fluoro-5-hydroxy-phenyl]-4-hydroxy-quinoline-3-carboxamide]"
< 10,++ (between 25% to 100%),"CC1(C)CCCNc2cc(NC(=O)c3c[nH]c4ccccc4c3=O)ccc21 [Compound 35, 1,4-dihydro-N-(2,3,4,5-tetrahydro-5,5-dimethyl-1H-benzo[b]azepin-8-yl)-4-oxoquinoline-3-carboxamide]"
< 10,++ (between 25% to 100%),"CC(C)c1ccccc1NC(=O)c1c[nH]c2ccccc2c1=O [Compound 36, N-(2-isopropylphenyl)-4-oxo-1H-quinoline-3-carboxamide]"
< 10,++ (between 25% to 100%),"O=C(Nc1cccc2cc[nH]c12)c1c[nH]c2ccccc2c1=O [Compound 37, N-(1H-indol-7-yl)-4-oxo-1H-quinoline-3-carboxamide]"
< 10,++ (between 25% to 100%),"O=C(Nc1ccccc1-c1cc2ccccc2[nH]1)c1c[nH]c2ccccc2c1=O [Compound 38, N-[2-(1H-indol-2-yl)phenyl]-4-oxo-1H-quinoline-3-carboxamide]"
10 to 25,++ (between 25% to 100%),"COc1nc2ccccc2c(OC)c1C(=O)Nc1cc(NC(=O)OC(C)(C)C)ccc1C(C)(C)C [Compound 39, [3-[(2,4-dimethoxy-3-quinolyl)carbonylamino]-4-tert-butyl-phenyl]aminoformic acid tert-butyl ester]"
25 to 60,+ (<25%),"O=C(Nc1ccccc1CCO)c1c[nH]c2ccccc2c1=O [Compound 40, N-[2-(2-hydroxyethyl)phenyl]-4-oxo-1H-quinoline-3-carboxamide]"
–,++ (between 25% to 100%),"CCCc1ccc(N)cc1NC(=O)c1c[nH]c2ccccc2c1=O [Compound 41, N-(5-amino-2-propyl-phenyl)-4-oxo-1H-quinoline-3-carboxamide]"
< 10,++ (between 25% to 100%),"O=C(Nc1ccccc1Oc1ncc(C(F)(F)F)cc1Cl)c1c[nH]c2ccccc2c1=O [Compound 42, N-[2-[[3-chloro-5-(trifluoromethyl)-2-pyridyl]oxy]phenyl]-4-oxo-1H-quinoline-3-carboxamide]"
< 10,++ (between 25% to 100%),"CCOc1cccc(-c2cc(C(C)(C)C)c(O)cc2NC(=O)c2c[nH]c3ccccc3c2=O)c1 [Compound 43, N-[2-(3-ethoxyphenyl)-5-hydroxy-4-tert-butyl-phenyl]-4-oxo-1H-quinoline-3-carboxamide]"
10 to 25,++ (between 25% to 100%),"Cc1nc2cc(NC(=O)c3c[nH]c4ccccc4c3=O)ccc2s1 [Compound 44, N-(2-methylbenzothiazol-5-yl)-4-oxo-1H-quinoline-3-carboxamide]"
10 to 25,++ (between 25% to 100%),"O=C(Nc1cc(Cl)cc(NS(=O)(=O)CCN2CCOCC2)c1)c1c[nH]c2ccccc2c1=O [Compound 46, N-[3-chloro-5-(2-morpholinoethylsulfonylamino)phenyl]-4-oxo-1H-quinoline-3-carboxamide]"
< 10,++ (between 25% to 100%),"CC(C)c1ccc(NC(=O)c2c[nH]c3ccccc3c2=O)c(C(F)(F)F)c1 [Compound 47, N-[4-isopropyl-2-(trifluoromethyl)phenyl]-4-oxo-1H-quinoline-3-carboxamide]"
< 10,++ (between 25% to 100%),"O=C(Nc1cc(Cl)ccc1F)c1c[nH]c2ccccc2c1=O [Compound 48, N-(5-chloro-2-fluoro-phenyl)-4-oxo-1H-quinoline-3-carboxamide]"
< 10,++ (between 25% to 100%),"COc1cccc(OC)c1-c1ccccc1NC(=O)c1c[nH]c2ccccc2c1=O [Compound 49, N-[2-(2,6-dimethoxyphenyl)phenyl]-4-oxo-1H-quinoline-3-carboxamide]"
< 10,++ (between 25% to 100%),"Cc1cc(C)c(NC(=O)c2c[nH]c3ccccc3c2=O)c(C)c1 [Compound 50, 4-oxo-N-(2,4,6-trimethylphenyl)-1H-quinoline-3-carboxamide]"

EC50 [µM],% Activity,Structure (SMILES)
< 10,++ (between 25% to 100%),"CC1CCN(S(=O)(=O)c2ccc3[nH]cc(C(=O)Nc4cc5[nH]ccc5cc4C(C)(C)C)c(=O)c3c2)CC1 [Compound 51, 6-[(4-methyl-1-piperidyl)sulfonyl]-4-oxo-N-(5-tert-butyl-1H-indol-6-yl)-1H-quinoline-3-carboxamide]"
< 10,++ (between 25% to 100%),"Cc1cccc(-c2ccccc2NC(=O)c2c[nH]c3ccccc3c2=O)c1 [Compound 52, N-[2-(m-tolyl)phenyl]-4-oxo-1H-quinoline-3-carboxamide]"
25 to 60,+ (<25%),"O=C(Nc1ccncc1)c1c[nH]c2ccccc2c1=O [Compound 53, 4-oxo-N-(4-pyridyl)-1H-quinoline-3-carboxamide]"
25 to 60,+ (<25%),"O=C(Nc1cccc2nsnc12)c1c[nH]c2ccccc2c1=O [Compound 54, 4-oxo-N-(8-thia-7,9-diazabicyclo[4.3.0]nona-2,4,6,9-tetraen-5-yl)-1H-quinoline-3-carboxamide]"
25 to 60,+ (<25%),"COc1c(N)cc(C(C)(C)C)cc1NC(=O)c1c[nH]c2ccccc2c1=O [Compound 55, N-(3-amino-2-methoxy-5-tert-butyl-phenyl)-4-oxo-1H-quinoline-3-carboxamide]"
< 10,++ (between 25% to 100%),"O=C(Nc1cc2c(cc1O)CCCC2)c1c[nH]c2ccccc2c1=O [Compound 56, 1,4-dihydro-N-(1,2,3,4-tetrahydro-6-hydroxynaphthalen-7-yl)-4-oxoquinoline-3-carboxamide]"
10 to 25,+++ (>100%),"CCC1(c2ccc(NC(=O)c3c[nH]c4ccccc4c3=O)cc2)CCC(=O)NC1=O (stereo not shown) [Compound 57, N-[4-(3-ethyl-2,6-dioxo-3-piperidyl)phenyl]-4-oxo-1H-quinoline-3-carboxamide]"
< 10,++ (between 25% to 100%),"Nc1cc(NC(=O)c2c[nH]c3ccccc3c2=O)ccc1OC(F)(F)F [Compound 58, N-[3-amino-4-(trifluoromethoxy)phenyl]-4-oxo-1H-quinoline-3-carboxamide]"
< 10,+++ (>100%),"COc1ccc(C(C)C)cc1-c1ccccc1NC(=O)c1c[nH]c2ccccc2c1=O [Compound 59, N-[2-(5-isopropyl-2-methoxy-phenyl)phenyl]-4-oxo-1H-quinoline-3-carboxamide]"
< 10,++ (between 25% to 100%),"CC(C)c1ccc(NC(=O)OC(C)(C)C)cc1NC(=O)c1c[nH]c2ccccc2c1=O [Compound 60, [4-isopropyl-3-[(4-oxo-1H-quinolin-3-yl)carbonylamino]phenyl]aminoformic acid tert-butyl ester]"
< 10,++ (between 25% to 100%),"Cc1cccc(NC(=O)c2c[nH]c3ccccc3c2=O)c1C [Compound 61, N-(2,3-dimethylphenyl)-4-oxo-1H-quinoline-3-carboxamide]"
< 10,++ (between 25% to 100%),"O=C(Nc1cccc(OC(F)(F)F)c1)c1c[nH]c2ccccc2c1=O [Compound 62, 4-oxo-N-[3-(trifluoromethoxy)phenyl]-1H-quinoline-3-carboxamide]"
< 10,++ (between 25% to 100%),"O=C(Nc1ccccc1-c1ccc(F)cc1F)c1c[nH]c2ccccc2c1=O [Compound 63, N-[2-(2,4-difluorophenyl)phenyl]-4-oxo-1H-quinoline-3-carboxamide]"
25 to 60,+ (<25%),"O=C(Nc1ccc2[nH]c(=O)[nH]c2c1)c1c[nH]c2ccccc2c1=O [Compound 64, 4-oxo-N-(2-oxo-1,3-dihydrobenzoimidazol-5-yl)-1H-quinoline-3-carboxamide]"
< 10,++ (between 25% to 100%),"O=C(Nc1cc2[nH]ccc2cc1-c1cccnc1)c1c[nH]c2ccccc2c1=O [Compound 65, 4-oxo-N-[5-(3-pyridyl)-1H-indol-6-yl]-1H-quinoline-3-carboxamide]"
